What all share (format): in vivo
Test [1] concerns deadnettle (henbit deadnettle, Lamium amplexicaule). In words: Test B pre-/postemergence plant response. The following applies: Postemergence. The procedure, abridged:
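Each species received compound formulated in non-phytotoxic solvent with surfactant, either at planting into a loam and sand blend or as a foliar spray once plants reached 2 to 18 cm in peat-based medium. Plants stayed in the greenhouse 13 to 15 days before visual evaluation against controls, scored 0 (no effect) to 100 (complete control).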

In a further test the test system is wild oat (Avena fatua). Kind of test: Test C plant response. The following applies: Preemergence, scale 0 to 100.
For test [2], the system named is bromegrass (downy bromegrass, Bromus tectorum). In words: Test C plant response. To be noted: Preemergence, scale 0 to 100.
Test [3] relates to winter barley (Hordeum vulgare). In words: Test C plant response. To be noted: Postemergence, scale 0 to 100. From the text:
(§1) Seeds of plant species selected from bluegrass (annual bluegrass, Poa annua), blackgrass (Alopecurus myosuroides), canarygrass (Phalaris minor), chickweed (common chickweed, Stellaria media), galium (catchweed bedstraw, Galium aparine), bromegrass (downy bromegrass, Bromus tectorum), field poppy (Papaver rhoeas), field violet (Viola arvensis), green foxtail (Setaria viridis), deadnettle (henbit deadnettle, Lamium amplexicaule), Italian ryegrass (Lolium multiflorum), kochia (Kochia scoparia), lambsquarters (Chenopodium album), oilseed rape (Brassica napus), pigweed (Amaranthus retroflexus), Russian thistle (Salsola iberica), spring barley (Hordeum vulgare), spring wheat (Triticum aestivum), buckwheat (wild buckwheat, Polygonum convolvulus), wild mustard (Sinapis arvensis), wild oat (Avena fatua), wild radish (Raphanus raphanistrum), windgrass (Apera spica-venti), winter barley (Hordeum vulgare), and winter wheat (Triticum aestivum) were planted and treated postemergence with test chemicals formulated in a non-phytotoxic solvent mixture which included a surfactant. Plants ranged in height from 2 to 18 cm (1- to 4-leaf stage).
(§2) Treated plants and controls were maintained in a controlled growth environment for 14 days after which time all test plants were visually evaluated and compared to controls. Plant response ratings, summarized in Table C, are based on a scale of 0 to 100 where 0 is no effect and 100 is complete control. A dash (-) response means no test result.

Test [4] concerns deadnettle (henbit deadnettle, Lamium amplexicaule). Kind of test: Test C plant response. To be noted: Postemergence, scale 0 to 100.
Text: as §1, §2

Test [5] concerns wild radish (Raphanus raphanistrum). Kind of test: Test C plant response. The following applies: Postemergence, scale 0 to 100.
Text: as §1, §2

The subject of test [6] is buckwheat (wild buckwheat, Polygonum convolvulus). Kind of test: Test C plant response. The following applies: Postemergence, scale 0 to 100.
Text: as §1, §2

The subject of test [7] is galium (catchweed bedstraw, Galium aparine). In words: Test C plant response. The following applies: Postemergence, scale 0 to 100.
Text: as §1, §2

For test [8], the system named is field violet (Viola arvensis). Kind of test: Test C plant response. The following applies: Postemergence, scale 0 to 100.
Text: as §1, §2

Test [9] concerns winter wheat (Triticum aestivum). Kind of test: Test C plant response. To be noted: Postemergence, scale 0 to 100.
Text: as §1, §2

The test system of test [10] is spring wheat (Triticum aestivum). Kind of test: Test C plant response. The following applies: Postemergence, scale 0 to 100.
Text: as §1, §2

The subject of test [11] is bluegrass (annual bluegrass, Poa annua). In words: Test C plant response. To be noted: Postemergence, scale 0 to 100.
Text: as §1, §2

Test [12] has as its system blackgrass (Alopecurus myosuroides). In words: Test C plant response. The following applies: Postemergence, scale 0 to 100.
Text: as §1, §2

Test [13] relates to canarygrass (Phalaris minor). Kind of test: Test C plant response. To be noted: Preemergence, scale 0 to 100.
The subject of test [14] is green foxtail (Setaria viridis). Kind of test: Test C plant response. The following applies: Preemergence, scale 0 to 100.
In test [15] the test system is blackgrass (Alopecurus myosuroides). Kind of test: Test C plant response. To be noted: Preemergence, scale 0 to 100.
The mark [16] stands for this setting: 31 g ai/ha, 0 to 100 scale (0 no effect, 100 complete control).
Setting [17] is: 125 g ai/ha, scale 0 to 100 (0 no effect, 100 complete control).
Where [18] appears, read: 250 g ai/ha, scale 0 to 100 (0 no effect, 100 complete control), 13 to 15 days.

On to `O=C1CCCC(O)=C1C(=O)c1cnc(-c2ccsc2)n(C2CCOCC2)c1=O` [Compound 186], for which the “Plant response rating, Deadnettle” value in [1] (setting [16]) turned out to be 90; in test [1] (setting [17]) it was 100; in test [1] (setting [18]) it was 100.
Consider `CCCCn1c(C2CC2)ncc(C(=O)C2=C(O)CCCC2=O)c1=O` [Compound 193], for which the “Plant response rating, Deadnettle” value in test [1] (setting [16]) amounted to 100; in test [1] (setting [17]) it was 100; in test [1] (setting [18]), 100; in test [1] (62 g ai/ha, scale 0 to 100 (0 no effect, 100 complete control)) it was 100.
With `O=C1CCCC(O)=C1C(=O)c1cnc(-c2ccccc2)n(-c2ccccc2)c1=O` [Compound 2, 5-[(2-hydroxy-6-oxo-1-cyclohexen-1-yl)carbonyl]-2,3-diphenyl-4(3H)-pyrimidinone], the “Plant response rating: Oat, Wild” value in the test with wild oat (Avena fatua) (62 g ai/ha), with wild oat (Avena fatua) (125 g ai/ha), in the test with wild oat (Avena fatua) (16 g ai/ha) and in the test with wild oat (Avena fatua) (31 g ai/ha) was 0 in each case. Further, the “Plant response rating: Bromegrass, Downy” value in [2] (62 g ai/ha), in [2] (125 g ai/ha), in [2] (16 g ai/ha) and in test [2] (31 g ai/ha) was 0 throughout. Further, the “Plant response rating: Barley, Winter” value in test [3] (16 g ai/ha) was 0; in test [3] (31 g ai/ha), 0; in [3] (62 g ai/ha), 10; in test [3] (125 g ai/ha) it was 30. Also, the “Plant response rating: Deadnettle” value in [4] (16 g ai/ha) was 95; in test [4] (31 g ai/ha) it was 95; in test [4] (62 g ai/ha) it was 100; in [4] (125 g ai/ha) it was 100. The “Plant response rating: Radish, Wild” value in test [5] (16 g ai/ha) was 65; in test [5] (31 g ai/ha) it was 80; in test [5] (62 g ai/ha) it was 95; in test [5] (125 g ai/ha) it was 95. Further, the “Plant response rating: Buckwheat, Wild” value in [6] (16 g ai/ha) came to 15; in [6] (31 g ai/ha), 20; in test [6] (62 g ai/ha) it was 40; in test [6] (125 g ai/ha), 70. Further, the “Plant response rating: Galium” value is listed as 5 in [7] (16 g ai/ha), 30 in test [7] (31 g ai/ha), 50 in test [7] (62 g ai/ha) and 70 in test [7] (125 g ai/ha). The “Plant response rating: Field Violet” value is 0 in test [8] (16 g ai/ha), 40 in test [8] (31 g ai/ha), 40 in test [8] (62 g ai/ha) and 50 in [8] (125 g ai/ha). Also, the “Plant response rating: Wheat, Winter” value in test [9] (16 g ai/ha) stood at 0; in [9] (31 g ai/ha), 0; in test [9] (62 g ai/ha) it was 0; in test [9] (125 g ai/ha), 30. In addition, the “Plant response rating: Wheat, Spring” value in test [10] (16 g ai/ha), in [10] (31 g ai/ha), in test [10] (62 g ai/ha) and in test [10] (125 g ai/ha) was 0 in each case. For the same compound, the “Plant response rating: Bluegrass” value in test [11] (16 g ai/ha) worked out at 0; in test [11] (31 g ai/ha), 25; in test [11] (62 g ai/ha), 25; in test [11] (125 g ai/ha), 65. Also, the “Plant response rating: Blackgrass” value stood at 0 in [12] (16 g ai/ha); 0 in test [12] (31 g ai/ha); 20 in [12] (62 g ai/ha); 30 in test [12] (125 g ai/ha); 0 in test [15] (62 g ai/ha); 0 in test [15] (125 g ai/ha). For the same compound, the “Plant response rating: Blackgrass” value in test [15] (16 g ai/ha) and in [15] (31 g ai/ha) was 0 in each case. Besides, the “Plant response rating: Canarygrass” value in test [13] (62 g ai/ha) is 0; in [13] (125 g ai/ha), 10; in test [13] (16 g ai/ha) it was 0; in test [13] (31 g ai/ha), 0. Also, the “Plant response rating: Foxtail, Green” value in [14] (62 g ai/ha), in [14] (125 g ai/ha), in [14] (16 g ai/ha) and in [14] (31 g ai/ha) was 0 throughout.

The values are drawn from patent publication US8952024B2, “Herbicidal pyrimidone derivatives” (E I du Pont de Nemours and Company, priority 2009, dated 2015).
